Reference: ChEMBL document CHEMBL1201862, “PubChem BioAssay data set” (2004)
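How tested: cells in 96-well plates exposed to compound for 48 hours at five concentrations. GI50 marks 50% less growth.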 Active and inactive are the calls of the source. Rule as the data show it: active = GI50 up to about 1.1 µM and inactive = higher.

What was measured:
Test in all cases: inhibition of tumour cell growth, NCI panel, 48 h
[1] = test system: A498
[2] = test system: A549
[3] = test system: HCT-15
[4] = test system: HL-60
[5] = test system: HT-29
[6] = test system: MDA-MB-231
[7] = test system: MDA-MB-435
[8] = test system: MOLT-4
[9] = test system: NCI-H226
[10] = test system: NCI-H23
[11] = test system: PC-3
[12] = test system: RPMI-8226
[13] = test system: SF-268
[14] = test system: SF-295
[15] = test system: SK-MEL-5
[16] = test system: SNB-75
[17] = test system: SR
[18] = test system: U-251
[19] = test system: NCI-H522

Compound	GI50 [1]	GI50 [2]	GI50 [3] [µM]	GI50 [4]	GI50 [5]	GI50 [6]	GI50 [7]	GI50 [8]	GI50 [9]	GI50 [10]	GI50 [11]	GI50 [12]	GI50 [13]	GI50 [14]	GI50 [15]	GI50 [16]	GI50 [17]	GI50 [18]	GI50 [19]
C[C@]12CCC3c4ccc(O)cc4CC[C@H]3C1CC(=O)N(CCN1CCCC1)C2=O (some centres undefined)	> 10 µM (inactive)	> 10 µM (inactive)	> 10	> 10 µM (inactive)	> 10 µM (inactive)	> 10 µM (inactive)	> 10 µM (inactive)	> 10 µM (inactive)	> 10 µM (inactive)	> 10 µM (inactive)	> 10 µM (inactive)	> 10 µM (inactive)	> 10 µM (inactive)	> 10 µM (inactive)	> 10 µM (inactive)	7.96 µM (inactive)	> 10 µM (inactive)	> 10 µM (inactive)	
CNC(=O)CCC(NC(=O)OC(C)(C)C)C(=O)NC(Cc1ccc(NC(=O)CCCCC(C)=O)cc1)C(=O)NCC(=O)NC (centres undefined)	> 100 µM (inactive)	> 100 µM (inactive)	> 100	> 100 µM (inactive)	> 100 µM (inactive)	> 100 µM (inactive)	> 100 µM (inactive)	> 100 µM (inactive)	> 100 µM (inactive)	> 100 µM (inactive)	> 100 µM (inactive)	> 100 µM (inactive)	> 100 µM (inactive)	> 100 µM (inactive)	> 100 µM (inactive)	> 100 µM (inactive)	> 100 µM (inactive)	> 100 µM (inactive)	> 100 µM (inactive)
CCOC(=O)NNC(=O)NCCNC(=O)NNC(=O)OCC	> 100 µM (inactive)	> 100 µM (inactive)	> 100	> 100 µM (inactive)	> 100 µM (inactive)	> 100 µM (inactive)	> 100 µM (inactive)	> 100 µM (inactive)	98.6 µM (inactive)	> 100 µM (inactive)	> 100 µM (inactive)	> 100 µM (inactive)	> 100 µM (inactive)		> 100 µM (inactive)	> 100 µM (inactive)	> 100 µM (inactive)	> 100 µM (inactive)	> 100 µM (inactive)
O=C(O)CCN1C(=S)CSC1=S	> 100 µM (inactive)	> 100 µM (inactive)	> 100		> 100 µM (inactive)	> 100 µM (inactive)	> 100 µM (inactive)	42 µM (inactive)	> 100 µM (inactive)	> 100 µM (inactive)	> 100 µM (inactive)	54.7 µM (inactive)	> 100 µM (inactive)	> 100 µM (inactive)	> 100 µM (inactive)	> 100 µM (inactive)	39.7 µM (inactive)	> 100 µM (inactive)	67.8 µM (inactive)
CC(C)CC(=O)NC(Nc1ccc(S(=O)(=O)Nc2ncccn2)cc1)(C(F)(F)F)C(F)(F)F		> 100 µM (inactive)	> 100	> 100 µM (inactive)	> 100 µM (inactive)	> 100 µM (inactive)	> 100 µM (inactive)	> 100 µM (inactive)	> 100 µM (inactive)	> 100 µM (inactive)	> 100 µM (inactive)	> 100 µM (inactive)	> 100 µM (inactive)	> 100 µM (inactive)	> 100 µM (inactive)	> 100 µM (inactive)	> 100 µM (inactive)	> 100 µM (inactive)	> 100 µM (inactive)
CCn1c(=O)c2c3cc(OC(C)=O)ccc3oc2c2ccc(OC(C)=O)cc21	24.8 µM (inactive)	43.9 µM (inactive)	39.1		37.3 µM (inactive)	48.4 µM (inactive)	31.1 µM (inactive)	23.6 µM (inactive)	34.4 µM (inactive)	37.9 µM (inactive)	33 µM (inactive)		31.9 µM (inactive)	19.8 µM (inactive)	33 µM (inactive)	2.69 µM (inactive)	36.3 µM (inactive)	32.6 µM (inactive)	39.1 µM (inactive)
c1ccc(/N=C2\c3ccccc3CN2c2ccccc2)cc1		> 100 µM (inactive)	> 100	> 100 µM (inactive)	> 100 µM (inactive)	> 100 µM (inactive)	> 100 µM (inactive)	> 100 µM (inactive)	> 100 µM (inactive)	> 100 µM (inactive)	> 100 µM (inactive)	> 100 µM (inactive)	> 100 µM (inactive)	> 100 µM (inactive)	> 100 µM (inactive)	74.3 µM (inactive)	> 100 µM (inactive)	> 100 µM (inactive)	> 100 µM (inactive)
O=c1cnn(C2OC(CO)C(O)C(F)C2O)c(=O)[nH]1 (centres undefined)	40.8 µM (inactive)	> 100 µM (inactive)	> 100	> 100 µM (inactive)	> 100 µM (inactive)	> 100 µM (inactive)	> 100 µM (inactive)		> 100 µM (inactive)	> 100 µM (inactive)	> 100 µM (inactive)	> 100 µM (inactive)	> 100 µM (inactive)	> 100 µM (inactive)	> 100 µM (inactive)		8.55 µM (inactive)	> 100 µM (inactive)	> 100 µM (inactive)
COC(=O)c1c2c(cc3c1CC1(Cc4cc5c(c(C=O)c4C1)CCC5)C3)CCC2 (centres undefined)	33.6 µM (inactive)	27.9 µM (inactive)	40.3	25.8 µM (inactive)	21.4 µM (inactive)	28.4 µM (inactive)	17.7 µM (inactive)	17 µM (inactive)		47.8 µM (inactive)	30.8 µM (inactive)	55.1 µM (inactive)	50.7 µM (inactive)	41.4 µM (inactive)	16 µM (inactive)	> 100 µM (inactive)	19.3 µM (inactive)	19.8 µM (inactive)	17.3 µM (inactive)
CCC[C@H](O)[C@@H](CNc1cc(NC(C)=O)nc(NC(C)=O)n1)N(Cc1ccccc1)Cc1ccccc1	30.8 µM (inactive)	13.2 µM (inactive)	31.7			49.9 µM (inactive)	54 µM (inactive)	4.47 µM (inactive)	14.3 µM (inactive)	17.1 µM (inactive)	13.5 µM (inactive)	46.2 µM (inactive)		6.44 µM (inactive)	20.9 µM (inactive)	13.2 µM (inactive)	49.5 µM (inactive)	47 µM (inactive)	8.75 µM (inactive)
CCOC(=O)C1(C#N)C(C#N)(C#N)C1(C#N)C#N	> 100 µM (inactive)	> 100 µM (inactive)	> 100	> 100 µM (inactive)	> 100 µM (inactive)	> 100 µM (inactive)	> 100 µM (inactive)	> 100 µM (inactive)	> 100 µM (inactive)	> 100 µM (inactive)	> 100 µM (inactive)	> 100 µM (inactive)	> 100 µM (inactive)	> 100 µM (inactive)	> 100 µM (inactive)		88.5 µM (inactive)	> 100 µM (inactive)	> 100 µM (inactive)
CC1(C)[C@@H](Cn2cnc3c(N)ncnc32)CC[C@@]1(C)CO	> 100 µM (inactive)	> 100 µM (inactive)	51.1	40.1 µM (inactive)	39.4 µM (inactive)	> 100 µM (inactive)	45.6 µM (inactive)	11.9 µM (inactive)	40.3 µM (inactive)	55 µM (inactive)	66.2 µM (inactive)		> 100 µM (inactive)	38.8 µM (inactive)	60.7 µM (inactive)	> 100 µM (inactive)	11.9 µM (inactive)	> 100 µM (inactive)	41.3 µM (inactive)
Cc1ccc(/C(=C\C(=O)C(=O)NC23CC4CC(CC(C4)C2)C3)Sc2ccccc2)cc1	> 10 µM (inactive)		> 10	5.82 µM (inactive)	> 10 µM (inactive)	> 10 µM (inactive)	> 10 µM (inactive)	4.63 µM (inactive)	> 10 µM (inactive)	> 10 µM (inactive)	4.31 µM (inactive)	9.02 µM (inactive)	> 10 µM (inactive)	> 10 µM (inactive)	> 10 µM (inactive)	> 10 µM (inactive)	> 10 µM (inactive)	> 10 µM (inactive)	> 10 µM (inactive)
O=S1(=O)N=C(SCc2c[nH]c3ccccc23)N(c2ccccc2)c2ccncc21	27 µM (inactive)	> 100 µM (inactive)	> 100	> 100 µM (inactive)	> 100 µM (inactive)	> 100 µM (inactive)	> 100 µM (inactive)	46.7 µM (inactive)	97.7 µM (inactive)	> 100 µM (inactive)	66.7 µM (inactive)		50.9 µM (inactive)	> 100 µM (inactive)	> 100 µM (inactive)	21.5 µM (inactive)	34.2 µM (inactive)	87.5 µM (inactive)	37.5 µM (inactive)
C[C@]12CC[C@H]3[C@@H](CCC4=C(Br)C(=O)C=C[C@@]43O)[C@@H]1CCC2=O	49.2 µM (inactive)	59.7 µM (inactive)	15.6	21.2 µM (inactive)	36 µM (inactive)	82 µM (inactive)	33.7 µM (inactive)	25.2 µM (inactive)	> 100 µM (inactive)	17.8 µM (inactive)	37.8 µM (inactive)	33.7 µM (inactive)	45.7 µM (inactive)	74.1 µM (inactive)	28.2 µM (inactive)		8.34 µM (inactive)	52.6 µM (inactive)	13 µM (inactive)
S=C(Nc1ccc2cn[nH]c2c1)Nc1ccc2cn[nH]c2c1	46 µM (inactive)	96.8 µM (inactive)	63.5		50 µM (inactive)	> 100 µM (inactive)	58.9 µM (inactive)		44.1 µM (inactive)	41.6 µM (inactive)	48.5 µM (inactive)	38 µM (inactive)	> 100 µM (inactive)	87.3 µM (inactive)	45.1 µM (inactive)	53 µM (inactive)	25.8 µM (inactive)	57.4 µM (inactive)	34.1 µM (inactive)
